According to patent US10889569B2, “Condensed ring group azacyclobutyl triazole derivative, preparation method therefor and use thereof in medicine” (Jiangsu Hengrui Medicine Co., Ltd., priority 2016, dated 2021):

Key:
human V1aR = human V1aR (Homo sapiens (Human), UniProt P37288); assay: Inhibition activity on human V1aR (Fluo-4 calcium assay, HEK293/human V1aR stably transfected cells); format: cell-based; conditions: vasopressin 3 nM
Method: The inhibition effect of the compounds of the present invention on the activity of human V1 aR protein expressed in HEK293/human V1aR stably transfected cells was determined by the following experimental method:
The pcDNA3.1-V1aR plasmid was transferred into HEK293 cells with the Lipofectamine® 3000 transfection reagent; G418 was added on the next day to screen, and monoclonal cell lines were selected.
(§1) HEK293/human V1aR stably transfected cells were inoculated in a 96-well plate with an inoculation density of 25,000 cells/well one day in advance. On the next day, a loading buffer containing Fluo-4 dye was formulated using the reagents in the Fluo-4 NW calcium assay kit, and the culture medium was then removed; 100 μl of the loading buffer containing Fluo-4 dye were added to each well, and the plate was incubated at 37° C. for 30 minutes. After that, the plate was moved to room temperature and equilibrated for 10 minutes. The compounds were formulated at 10^6, 10^5, 10^4, 10^3, 10^2 and 10^1 nM. 1 μl of the compounds in each concentration was added to each well, and the plate was incubated at room temperature for 10 minutes. 50 μl of vasopressin polypeptide (3 nM) were automatically added by the machine, and the values were immediately detected at 494/516 nM by the flexstation 3 microplate reader. IC50 values of the compounds were calculated by Graphpad prism software using fluorescence signals corresponding to different concentrations.
The inhibition activity of the compounds of the present invention on human V1aR was determined by the above test, and the obtained IC50 values are shown in Table 2.

human OTR = human OTR (Homo sapiens, UniProt P30559); assay: Inhibition activity on human OTR (Fluo-4 calcium assay, HEK293/human OTR stably transfected cells); format: cell-based; conditions: oxytocin 3 nM
Method: The inhibition effect of the compounds of the present invention on the activity of human OTR protein expressed in HEK293/human OTR stably transfected cells was determined by the following experimental method:
The pcDNA3.1-hOTR plasmid was transferred into HEK293 cells with the Lipofectamine® 3000 transfection reagent; G418 was added on the next day to screen, and monoclonal cell lines were selected.
as §1, with “OTR” for “V1aR”, “oxytocin” for “vasopressin”
The inhibition activity of the compounds of the present invention on human OTR was determined by the above test, and the obtained IC50 values are shown in Table 1.

[1] = Pharmacokinetics assay in rats after intragastrical administration; format: in vivo, SD rats; conditions: Sprague-Dawley, rat, plasma, po, 30 mg/kg, intragastric, male rats; for Vd/F: read-out: Apparent distribution volume Vz/F; for AUC: read-out: Area under curve AUC; for CL/F: read-out: Clearance CLz/F; for half-life: read-out: Half-life T1/2 (converted); for Cmax: read-out: Plasma concentration Cmax; for MRT: read-out: Residence time MRT
Method: Male SD rats were used as test animals. The drug concentration in plasma at different time points was determined by LC/MS/MS method after intragastrical administration of the compounds of Examples 2, 17, 34, 37, 38, 39 and 43 to rats. The pharmacokinetic behavior of the compounds of the present invention was studied and evaluated in rats.
Twenty-one healthy adult male Sprague-Dawley (SD) rats were purchased from Shanghai Jiesijie Laboratory Animal Co., LTD, with Certificate No.: SCXK (Shanghai) 2013-0006, and equally divided into 7 groups (3 rats per group).
A certain amount of the test compound was weighed, and added with 2.5% by volume of DMSO and 97.5% by volume of 10% solutol HS-15 to formulate a […] colorless, clear and transparent solution.
After an overnight fast, SD rats were administered intragastrically the test compounds at an administration dosage of 30.0 mg/kg and an administration volume of 10.0 mL/kg.
The rats were intragastrically administered the compounds of Examples 2, 17, 34, 37, 38, 39 and 43. 0.2 mL of blood was taken from the orbital sinus before administration and at 0.5, 1.0, 2.0, 4.0, 6.0, 8.0, 11.0 and 24.0 hours after administration. The samples were stored in heparinized tubes, and centrifuged for 10 minutes at 4° C. at 3500 rpm to separate the plasma. The plasma samples were stored at −20° C. The rats were fed 2 hours after administration.
The content of the test compounds in the plasma of rats after intragastrical administration of the test compounds at different concentrations was determined: 50 μL of rat plasma at each time after administration was taken, added with 50 μL of the internal standard solution of camptothecin (100 ng/mL) and 150 μL of acetonitrile, vortex-mixed for 5 minutes, and centrifuged for 10 minutes (4000 rpm). 3 μL of the supernatant was taken from the plasma samples for LC/MS/MS analysis.

Chain of human V1aR (P37288 whole entry): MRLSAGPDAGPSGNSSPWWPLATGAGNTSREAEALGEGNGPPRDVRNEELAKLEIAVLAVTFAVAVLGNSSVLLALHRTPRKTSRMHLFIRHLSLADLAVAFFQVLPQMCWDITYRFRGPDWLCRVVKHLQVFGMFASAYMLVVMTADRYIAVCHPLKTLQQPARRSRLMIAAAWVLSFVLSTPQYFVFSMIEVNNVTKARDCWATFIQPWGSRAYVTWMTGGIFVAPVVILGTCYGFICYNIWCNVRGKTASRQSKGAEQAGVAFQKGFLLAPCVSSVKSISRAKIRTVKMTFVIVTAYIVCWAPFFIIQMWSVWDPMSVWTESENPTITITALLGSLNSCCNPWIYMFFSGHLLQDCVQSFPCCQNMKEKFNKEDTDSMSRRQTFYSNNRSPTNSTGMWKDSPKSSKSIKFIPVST

Compound | IC50 (human V1aR) [nM] | IC50 (human OTR) [nM] | other results
COCc1nnc(N2CC(n3cc(Cl)c4cc(F)ccc43)C2)n1-c1ccc2c(c1)OCO2 [Example 3, 1-(1-(4-(Benzo[d][1,3]dioxolan-5-yl)-5-(methoxymethyl)-4H-1,2,4-triazol-3-yl)azetidin-3-yl)-3-chloro-5-fluoro-1H-indole] | 7000 | – | –
CCOCc1nnc(N2CC(n3cc(Cl)c4cc(F)ccc43)C2)n1-c1ccc(OC)nc1 [Example 4, 3-Chloro-1-(1-(5-(ethoxymethyl)-4-(6-methoxypyridin-3-yl)-4H-1,2,4-triazol-3-yl)azetidin-3-yl)-5-fluoro-1H-indole] | 2300 | – | –
CCOCc1nnc(N2CC(n3cc(C)c4cc(F)ccc43)C2)n1-c1ccc(OC)nc1 [Example 5, 1-(1-(5-(Ethoxymethyl)-4-(6-methoxypyridin-3-yl)-4H-1,2,4-triazol-3-yl)azetidin-3-yl)-5-fluoro-3-methyl-1H-indole] | – | 188 | –
COc1ccc(-n2c(C)nnc2N2CC(n3cc(C)c4cc(F)ccc43)C2)cn1 [Example 6, 5-Fluoro-1-(1-(4-(6-methoxypyridin-3-yl)-5-methyl-4H-1,2,4-triazol-3-yl)azetidin-3-yl)-3-methyl-1H-indole] | 4700 | – | –
COCc1nnc(N2CC(n3cc(C(F)(F)F)c4cc(F)ccc43)C2)n1-c1ccc(OC)nc1 [Example 7, 5-Fluoro-1-(1-(5-(methoxymethyl)-4-(6-methoxypyridin-3-yl)-4H-1,2,4-triazol-3-yl)azetidin-3-yl)-3-(trifluoromethyl)-1H-indole] | 6700 | – | –
COCc1nnc(N2CC(n3cc(C#N)c4cc(F)ccc43)C2)n1-c1ccc(OC)nc1 [Example 13, 5-Fluoro-1-(1-(5-(methoxymethyl)-4-(6-methoxypyridin-3-yl)-4H-1,2,4-triazol-3-yl)azetidin-3-yl)-1H-indole-3-carbonitrile] | 11900 | – | –
COCc1nnc(N2CC(N3CCCc4c(F)cccc43)C2)n1-c1ccc(OC)nc1 [Example 19, 5-Fluoro-1-(1-(5-(methoxymethyl)-4-(6-methoxypyridin-3-yl)-4H-1,2,4-triazol-3-yl)azetidin-3-yl)-1,2,3,4-tetrahydroquinoline] | 2000 | 41 | –
COc1ccc(-n2c(C)nnc2N2CC(N3CCCc4c(F)cccc43)C2)cn1 [Example 20, 5-Fluoro-1-(1-(4-(6-methoxypyridin-3-yl)-5-methyl-4H-1,2,4-triazol-3-yl)azetidin-3-yl)-1,2,3,4-tetrahydroquinoline] | 3100 | 104 | –
COCc1nnc(N2CC(N3CCOc4c(F)cccc43)C2)n1-c1ccc(OC)nc1 [Example 22, 8-Fluoro-4-(1-(5-(methoxymethyl)-4-(6-methoxypyridin-3-yl)-4H-1,2,4-triazol-3-yl)azetidin-3-yl)-3,4-dihydro-2H-benzo[b][1,4]oxazine] | 7500 | 177 | –
COCc1nnc(N2CC(n3ccc4cc(F)ccc43)C2)n1-c1ccc(OC)nc1 [Example 25, 5-Fluoro-1-(1-(5-(methoxymethyl)-4-(6-methoxypyridin-3-yl)-4H-1,2,4-triazol-3-yl)azetidin-3-yl)-1H-indole] | – | 23 | –
COCc1nnc(N2CC(N3CCCc4cc(F)ccc43)C2)n1-c1ccc2c(c1)OCO2 [Example 28, 1-(1-(4-(Benzo[d][1,3]dioxolan-5-yl)-5-(methoxymethyl)-4H-1,2,4-triazol-3-yl)azetidin-3-yl)-6-fluoro-1,2,3,4-tetrahydroquinoline] | 2400 | 231 | –
COc1ccc(-n2c(COC(F)F)nnc2N2CC(n3cc(C)c4cc(F)ccc43)C2)cn1 [Example 34, 1-(1-(5-((Difluoromethoxy)methyl)-4-(6-methoxypyridin-3-yl)-4H-1,2,4-triazol-3-yl)azetidin-3-yl)-5-fluoro-3-methyl-1H-indole] | – | 8 | Vd/F [1]: 17.8 ± 3.33 L/kg; AUC [1]: 5330 ± 981 ng·h/mL; CL/F [1]: 95.8 ± 16 mL/min/kg; half-life [1]: 2.16 ± 0.345 h; Cmax [1]: 1070 ± 252 ng/mL; MRT [1]: 3.84 ± 1.08 h
COc1ccc(-n2c(C(F)F)nnc2N2CC(N3CCOc4cc(F)ccc43)C2)cn1 [Example 35, 4-(1-(5-(Difluoromethyl)-4-(6-methoxypyridin-3-yl)-4H-1,2,4-triazol-3-yl)azetidin-3-yl)-7-fluoro-3,4-dihydro-2H-benzo[b][1,4]oxazine] | 14100 | 181 | –
COC(=O)NCc1nnc(N2CC(N3CCCc4cc(F)ccc43)C2)n1-c1ccc(OC)nc1 [Example 36, Methyl ((5-(3-(6-fluoro-3,4-dihydroquinolin-1(2H)-yl)azetidin-1-yl)-4-(6-methoxypyridin-3-yl)-4H-1,2,4-triazol-3-yl)methyl)carbamate] | 2100 | 124 | –
COc1ccc(-n2c(COC(F)F)nnc2N2CC(N3CCOc4cc(F)ccc43)C2)cn1 [Example 37, 4-(1-(5-((Difluoromethoxy)methyl)-4-(6-methoxypyridin-3-yl)-4H-1,2,4-triazol-3-yl)azetidin-3-yl)-7-fluoro-3,4-dihydro-2H-benzo[b][1,4]oxazine] | 1700 | 4 | Vd/F [1]: 56.3 ± 66 L/kg; AUC [1]: 8180 ± 9850 ng·h/mL; CL/F [1]: 201 ± 223 mL/min/kg; half-life [1]: 2.95 ± 0.42 h; Cmax [1]: 1120 ± 950 ng/mL; MRT [1]: 4.9 ± 1.36 h
COc1ccc(-n2c(N3CC(N4CCCc5cc(F)ccc54)C3)nnc2C(F)(F)F)cn1 [Example 39, 6-Fluoro-1-(1-(4-(6-methoxypyridin-3-yl)-5-(trifluoromethyl)-4H-1,2,4-triazol-3-yl)azetidin-3-yl)-1,2,3,4-tetrahydroquinoline] | 2000 | 6 | Vd/F [1]: 35 ± 3.01 L/kg; AUC [1]: 3830 ± 83.7 ng·h/mL; CL/F [1]: 131 ± 2.85 mL/min/kg; half-life [1]: 3.09 ± 0.199 h; Cmax [1]: 1200 ± 68.5 ng/mL; MRT [1]: 3.61 ± 0.022 h
COc1ccc(-n2c(CO)nnc2N2CC(c3cccc4cc(F)ccc34)C2)cn1 [Example 41, (5-(3-(6-Fluoronaphthalen-1-yl)azetidin-1-yl)-4-(6-methoxypyridin-3-yl)-4H-1,2,4-triazol-3-yl)methanol] | 9000 | 150 | –
COCc1nnc(N2CC(N3CCC(C)(C)c4cc(F)ccc43)C2)n1-c1ccc(OC)nc1 [Example 42, 6-Fluoro-1-(1-(5-(methoxymethyl)-4-(6-methoxypyridin-3-yl)-4H-1,2,4-triazol-3-yl)azetidin-3-yl)-4,4-dimethyl-1,2,3,4-tetrahydroquinoline] | 4500 | 23 | –
